# Laboratory results as given in PMC10913484, “Hydroxyhexylitaconic acids as potent IMP-type metallo-β-lactamase inhibitors for controlling carbapenem resistance in Enterobacterales” (Microbiology Spectrum, 2024).
# Read-outs that look alike come from different tables or passages of the source.
# Columns and labels:
# IMP-1 [1] = target: T1, IMP-1 (Serratia marcescens, UniProt P52699); test: In vitro inhibition assay (IPM hydrolysis); assay type: biochemical; conditions: for Inhibition mode for IMP-1: Lineweaver–Burk plots
# T1 construct: made in house
# NDM-1 = target: T2, NDM-1 (Klebsiella pneumoniae, UniProt C7C422); test: In vitro inhibition assay (IPM hydrolysis); assay type: biochemical; conditions: even at high doses (100 µM)
# T2 construct: made in house
# E. coli DH5α pBC-IMP-1 = test: Susceptibility test (microdilution), transformant; assay type: cell-based; conditions: Escherichia coli
# Procedure: (§1) Susceptibility testing, based on the microdilution method, was performed according to the guidelines of the Clinical and Laboratory Standards Institute ([36]).
# E. coli DH5α pBC-NDM-1 = test: Susceptibility test (microdilution), transformant; assay type: cell-based; conditions: for MPM MIC: E. coli DH5α pBC-NDM-1; for MIC: Escherichia coli, read-out: MPM MIC
# Procedure: as §1
# E. coli DH5α pCL-SMB-1 = test: Susceptibility test (microdilution), transformant; assay type: cell-based; conditions: for MPM MIC: E. coli DH5α pCL-SMB-1
# Procedure: as §1
# [2] = system: IMP-1-producing E. coli NUBL-24; test: Time-killing assay; assay type: cell-based; conditions: 12-h incubation; for Time-kill: effect on growth, HHIA alone: 50 µg/mL alone; for Time-kill: MPM-HHIA combination: MPM 1 µg/mL + HHIA 50 µg/mL
# Procedure: The initial density of IMP-1-producing E. coli NUBL-24 (MPM MIC, 8 µg/mL) was adjusted to approximately 5 × 10^6 colony-forming units (cfu)/mL. Either MPM (1 µg/mL) or 9-HHIA/10-HHIA (50 µg/mL) alone or a combination of the two was added to the bacterial solution, and then incubation was performed at 37°C. LB broth containing bacteria alone was used as a control. At 0, 2, 4, 8, and 12 h after adding the agents, an aliquot of the bacterial culture was removed, diluted, and spotted on LB agar plates to count the viable bacterial cells. The detection limit was set at 333 cfu/mL.
# IMP-1 [3] = target: T1, IMP-1; assay type: biochemical; conditions: IMP-1 with agent (5 mM stock), dialysis
# Procedure: A total of 5 µL of IMP-1 (100 µM) and 2 µL of EDTA (5 mM) or HHIA (5 mM) were mixed in 100 µL of 20 mM HEPES buffer (pH 7.5) pretreated with Chelex 100 resin (Bio-Rad) and incubated on ice for 30 min. The samples were dialyzed against ultrapure water at 4°C for 6 h using Slide-A-Lyzer Dialysis Cassettes (cutoff, 3.5 K) (Thermo Fisher Scientific) and treated with proteinase K (FUJIFILM Wako Pure Chemical Corporation) at 37°C for 1 h. The zinc concentration in the samples was determined using a Zinc Assay Kit (MG Metallogenics).
# [4] = read-out: MPM MIC, +agent 100 μg/mL
# T1 sequence (P52699 19-246, looked up, species assumed): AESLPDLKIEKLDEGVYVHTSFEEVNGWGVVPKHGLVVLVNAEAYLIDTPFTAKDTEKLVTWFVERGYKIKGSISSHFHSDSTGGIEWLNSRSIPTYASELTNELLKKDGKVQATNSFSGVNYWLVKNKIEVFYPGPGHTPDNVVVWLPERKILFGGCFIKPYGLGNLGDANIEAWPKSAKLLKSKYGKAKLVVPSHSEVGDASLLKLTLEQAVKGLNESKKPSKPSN
# T2 sequence (C7C422 29-270 limits assumed): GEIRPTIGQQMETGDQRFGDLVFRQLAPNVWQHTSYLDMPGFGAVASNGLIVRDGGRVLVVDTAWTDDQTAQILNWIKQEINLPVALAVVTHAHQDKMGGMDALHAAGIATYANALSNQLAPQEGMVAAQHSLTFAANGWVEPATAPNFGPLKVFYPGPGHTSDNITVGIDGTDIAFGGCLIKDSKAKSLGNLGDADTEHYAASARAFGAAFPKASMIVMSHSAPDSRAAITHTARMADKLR
Compound,IC50 (IMP-1 [1]) [µM],Ki (IMP-1 [1]) [µM],Inhibition mode for IMP-1 (IMP-1 [1]),Inhibition of hydrolyzing activity of NDM-1 (NDM-1),MIC (E. coli DH5α pBC-IMP-1; [4]) [µg/mL],MPM MIC (E. coli DH5α pBC-NDM-1; +agent 25 μg/mL) [µg/mL],MPM MIC (E. coli DH5α pBC-NDM-1; +agent 100 μg/mL) [µg/mL],MIC (E. coli DH5α pBC-NDM-1) [µg/mL],MPM MIC (E. coli DH5α pCL-SMB-1; +agent 25 μg/mL) [µg/mL],MPM MIC (E. coli DH5α pCL-SMB-1; +agent 100 μg/mL) [µg/mL],"Time-kill: effect on growth, HHIA alone [2]",Time-kill: MPM-HHIA combination [2],Zinc ions in IMP-1 after treatment (IMP-1 [3]),"MIC (E. coli DH5α pBC-IMP-1; read-out: MPM MIC, +agent 25 μg/mL) [µg/mL]","MIC (E. coli DH5α pCL-SMB-1; Escherichia coli, read-out: MPM MIC) [µg/mL]"
"C=C(C(=O)O)C(CCCCC(C)O)C(=O)O (stereo not shown) [9-HHIA, 9-hydroxyhexylitaconic acid]",50.5,11.1,competitive inhibitors,did not inhibit,0.125,64,64,64,32,32,did not affect the growth,did not permit the re-growth,did not cause a significant loss of zinc ions,–,–
"C=C(C(=O)O)C(CCCCCCO)C(=O)O (stereo not shown) [10-HHIA, 10-hydroxyhexylitaconic acid]",31.6,5,competitive inhibitors,did not inhibit,≤ 0.0625,64,64,64,32,32,did not affect the growth,did not permit the re-growth,did not cause a significant loss of zinc ions,0.125,32
